# Test results as given in patent publication US5464829A, “Cephalosporin derivatives” (Meiji Seika Kaisha Ltd., priority 1992, dated 1995).
# Tests used:
# Assay in all cases: Minimum inhibitory concentration (MIC), serial dilution technique
# Assay type in all cases: cell-based
# K. pneumoniae PCI602 = conditions: Klebsiella pneumoniae, 10^6 CFU/ml, 35° C., 18 to 20 hours
# Experimental: (§1) Antibacterial activities of the following typical compounds A through E of the present invention represented by formula (I) upon various bacteria were determined by measuring the minimum inhibitory concentrations (MIC) in accordance with the known serial dilution technique. MIC was measured by inoculating 10^6 CFU/ml of each test strain on a Sensitivity Plate Medium N (Nissui Pharmaceutical Co., Ltd.), incubating the plates at 35° C. for 18 to 20 hours and then evaluating the results.
# S. epidermidis ATCC14990 = conditions: Staphylococcus epidermidis, 10^6 CFU/ml, 35° C., 18 to 20 hours
# Experimental: as §1
# E. hirae ATCC8043 = conditions: Enterococcus hirae, 10^6 CFU/ml, 35° C., 18 to 20 hours
# Experimental: as §1
# M. morganii 1510/S-1 = conditions: Morganella morganii, 1510/S1, 10^6 CFU/ml, 35° C., 18 to 20 hours
# Experimental: as §1
# E. cloacae G-0008 = conditions: Enterobacter cloacae, G0008, 10^6 CFU/ml, 35° C., 18 to 20 hours
# Experimental: as §1
# E. coli NIHJ JC-2 = conditions: Escherichia coli, NIHJJC2, 10^6 CFU/ml, 35° C., 18 to 20 hours
# Experimental: as §1
# C. freundii GN346/16 = conditions: Citrobacter freundii, 10^6 CFU/ml, 35° C., 18 to 20 hours
# Experimental: as §1
# P. vulgaris GN76 = conditions: Proteus vulgaris, 10^6 CFU/ml, 35° C., 18 to 20 hours
# Experimental: as §1
# S. aureus 209P JC-1 = conditions: Staphylococcus aureus, 10^6 CFU/ml, 35° C., 18 to 20 hours
# Experimental: as §1
# S. marcescens No. 1 = conditions: Serratia marcescens, 10^6 CFU/ml, 35° C., 18 to 20 hours
# Experimental: as §1
# P. aeruginosa E-2 = conditions: Pseudomonas aeruginosa, E2, 10^6 CFU/ml, 35° C., 18 to 20 hours
# Experimental: as §1
Compound,MIC (K. pneumoniae PCI602),MIC (S. epidermidis ATCC14990),MIC (E. hirae ATCC8043),MIC (M. morganii 1510/S-1),MIC (E. cloacae G-0008),MIC (E. coli NIHJ JC-2),MIC (C. freundii GN346/16),MIC (P. vulgaris GN76),MIC (S. aureus 209P JC-1),MIC (S. marcescens No. 1),MIC (P. aeruginosa E-2)
"CO/N=C(\C(=O)NC1C(=O)N2C(C(=O)[O-])=C(CSc3nc4c(ccc[n+]4C)s3)CSC12)c1csc(N)n1 (stereo not shown) [B, 7-{(Z)-2-(2-aminothiazol-4-yl)-2-methoxyiminoacetamido}-3-(4-methylthiazolo[4,5-b]pyridinium-2-yl)thiomethyl-3-cephem-4-carboxylate]",0.05 µg/mL,0.2 µg/mL,50 µg/mL,0.1 µg/mL,0.2 µg/mL,0.1 µg/mL,0.1 µg/mL,0.2 µg/mL,0.2 µg/mL,0.2 µg/mL,25 µg/mL
"C[C@H](O/N=C(\C(=O)NC1C(=O)N2C(C(=O)[O-])=C(CSc3nc4c[n+](C)ccc4s3)CSC12)c1csc(N)n1)C(=O)O (stereo partly drawn) [E, 7-[(Z)-2-(2-aminothiazol-4-yl)-2-{(S)-1-carboxyethoxyimino}acetamido]-3-(5-methylthiazolo[4,5-c]pyridinium-2-yl)thiomethyl-3-cephem-4-carboxylate]",0.05 µg/mL,1.56 µg/mL,> 100 µg/mL,0.05 µg/mL,0.2 µg/mL,0.2 µg/mL,0.39 µg/mL,< 0.025 µg/mL,1.56 µg/mL,0.05 µg/mL,1.56 µg/mL
"C[n+]1ccc2sc(SCC3=C(C(=O)[O-])N4C(=O)C(NC(=O)/C(=N\OC(C)(C)C(=O)O)c5csc(N)n5)C4SC3)nc2c1 (stereo not shown) [D, 7-{(Z)-2-(2-aminothiazol-4-yl)-2-(1-carboxy-1-methylethoxyimino)acetamido}-3-(5-methylthiazolo[4,5-c]pyridinium-2-yl)thiomethyl-3-cephem-4-carboxylate]",0.2 µg/mL,3.13 µg/mL,> 100 µg/mL,0.05 µg/mL,0.2 µg/mL,0.2 µg/mL,0.39 µg/mL,0.1 µg/mL,3.13 µg/mL,0.05 µg/mL,3.13 µg/mL

# Further lines, results first:
MIC (K. pneumoniae PCI602),MIC (S. epidermidis ATCC14990),MIC (E. hirae ATCC8043),MIC (M. morganii 1510/S-1),MIC (E. cloacae G-0008),MIC (E. coli NIHJ JC-2),MIC (C. freundii GN346/16),MIC (P. vulgaris GN76),MIC (S. aureus 209P JC-1),MIC (S. marcescens No. 1),MIC (P. aeruginosa E-2),Compound
< 0.025 µg/mL,3.13 µg/mL,100 µg/mL,< 0.025 µg/mL,0.05 µg/mL,0.05 µg/mL,0.2 µg/mL,< 0.025 µg/mL,3.13 µg/mL,< 0.025 µg/mL,12.5 µg/mL,"C[n+]1ccc2sc(SCC3=C(C(=O)[O-])N4C(=O)C(NC(=O)/C(=N\OCC(=O)O)c5csc(N)n5)C4SC3)nc2c1 (stereo not shown) [C, 7-{(Z)-2-(2-aminothiazol-4-yl)-2-carboxymethoxyiminoacetamido}-3-(5-methylthiazolo[4,5-c]pyridinium-2-yl)thiomethyl-3-cephem-4-carboxylate]"
0.05 µg/mL,0.2 µg/mL,1.56 µg/mL,< 0.025 µg/mL,0.05 µg/mL,0.05 µg/mL,0.1 µg/mL,0.39 µg/mL,0.2 µg/mL,0.05 µg/mL,50 µg/mL,"CO/N=C(\C(=O)NC1C(=O)N2C(C(=O)[O-])=C(CSc3nc4c[n+](C)ccc4s3)CSC12)c1csc(N)n1 (stereo not shown) [A, 7-{(Z)-2-(2-aminothiazol-4-yl)-2-methoxyiminoacetamido}-3-(5-methylthiazolo[4,5-c]pyridinium-2-yl)thiomethyl-3-cephem-4-carboxylate]"
